Measurements from patent US8614201B2 (Janssen Pharmaceutica NV, priority 2009, dated 2013).

Each molecule was assayed against Human TRPA1 (Homo sapiens, UniProt O75762) (assay: Assay 1: In vitro cellular testing of TRPA1 modulation (CHO-TREx, Fluo-3 calcium fluorescence, AITC agonist)). Settings: CHO-TREx cells expressing human TRPA1; Fluo-3 fluorescence (FLIPR/Tetra); agonist 15 μM allyl isothiocyanate (AITC); 30 minute antagonist incubation.
Sequence of Human TRPA1 (O75762 whole entry): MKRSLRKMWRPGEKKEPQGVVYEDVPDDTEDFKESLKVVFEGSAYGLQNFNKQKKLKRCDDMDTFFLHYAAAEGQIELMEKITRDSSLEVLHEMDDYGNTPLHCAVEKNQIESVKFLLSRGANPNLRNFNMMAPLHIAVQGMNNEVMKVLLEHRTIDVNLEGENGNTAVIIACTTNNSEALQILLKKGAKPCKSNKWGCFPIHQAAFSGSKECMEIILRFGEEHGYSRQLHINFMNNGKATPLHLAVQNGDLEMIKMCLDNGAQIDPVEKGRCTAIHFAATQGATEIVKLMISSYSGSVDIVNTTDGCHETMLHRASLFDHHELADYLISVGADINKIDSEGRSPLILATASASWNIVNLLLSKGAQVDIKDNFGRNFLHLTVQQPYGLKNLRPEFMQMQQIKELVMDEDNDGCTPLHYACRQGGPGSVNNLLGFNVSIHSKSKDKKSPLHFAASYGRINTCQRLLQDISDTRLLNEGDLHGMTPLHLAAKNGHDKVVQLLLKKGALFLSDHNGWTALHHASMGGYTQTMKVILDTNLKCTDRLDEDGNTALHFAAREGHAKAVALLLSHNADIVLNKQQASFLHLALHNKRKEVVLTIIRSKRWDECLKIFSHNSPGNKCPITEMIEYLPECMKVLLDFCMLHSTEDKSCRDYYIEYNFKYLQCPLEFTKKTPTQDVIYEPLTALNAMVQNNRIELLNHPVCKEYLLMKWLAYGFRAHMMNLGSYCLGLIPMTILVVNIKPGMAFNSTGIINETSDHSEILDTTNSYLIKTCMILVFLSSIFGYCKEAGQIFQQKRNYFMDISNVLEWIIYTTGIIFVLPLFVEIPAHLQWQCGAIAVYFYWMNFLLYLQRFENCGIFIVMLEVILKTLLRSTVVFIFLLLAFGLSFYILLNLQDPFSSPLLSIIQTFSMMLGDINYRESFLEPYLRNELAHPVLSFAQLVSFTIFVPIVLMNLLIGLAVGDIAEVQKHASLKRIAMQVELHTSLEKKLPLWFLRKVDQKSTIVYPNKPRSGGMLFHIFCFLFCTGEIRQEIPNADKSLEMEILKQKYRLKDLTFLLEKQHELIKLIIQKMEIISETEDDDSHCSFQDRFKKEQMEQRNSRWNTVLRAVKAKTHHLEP
Assay type: cell-based
Design: expressed in transfected cells; host or cells: CHO-TREx cells (Invitrogen), vector pcDNA4/TO
Experimental: Assay 1: In Vitro Cellular Testing of TRPA1 Modulation
Human TRPA1 (NCBI accession number NM_007332.1) was cloned into pcDNA4/TO. CHO-TREx cells (Invitrogen, Carlsbad, Calif.) were stably transfected with pcDNA4/TO-TRPA1 using lipofection to generate a clonal cell line that expressed human TRPA1 in a tetracycline-inducible manner. Culture medium used was Ham's F-12 supplemented with 10% fetal bovine serum, 2 mM L-glutamine, 5 μg/ml blasticidin and 200 μg/ml zeocin. Cells were seeded in black-walled clear-bottom 96-well plates at a density of 50,000 cells per well and cultured overnight at 37° C. with 5% CO2 in culture medium supplemented with 1 μg/ml tetracycline. On the day of the experiment, cells were washed 3 times with HEPES buffered saline (in mM: NaCl 137, MgCl2 0.5, KCl 2, dextrose 5, CaCl2 2 and HEPES 10; pH 7.4). Cells were then loaded with calcium-sensitive fluorescent dye by incubation in the presence of 4 μM Fluo-3 AM (TefLabs, Austin, Tex.) at room temperature in the dark for 60 minutes. After incubation with dye, cells were washed in assay buffer and, if appropriate, antagonists were added at this time. Following a further 30 minute incubation, cells were assayed using a Fluorometric Imaging Plate Reader (FLIPR™) or a Tetra (both manufactured by Molecular Devices, CA) to simultaneously monitor Fluo-3 fluorescence in all wells (λexcitation=488 nm, λemission=540 nm). Changes in fluorescence were monitored for 3 minutes after the addition of 15 μM allyl isothiocyanate (AITC) as an agonist. Concentration-dependence of receptor blocking was determined by exposing each well of cells in duplicate rows of a 96-well plate to a serial dilution of test compound. The concentration series usually started at 10 μM with a three-fold serial decrement in concentration. The magnitude of the response to agonist challenge was determined by measuring the fluorescence before and 3 minutes after the addition of the agonist. The degree of blocking was determined by comparing the response to that of negative (no added antagonist) and positive (10 μM ruthenium red) control wells. Data were analyzed using a non-linear regression program (Origin; OriginLab, MA) to fit the concentration-response data to a Hill function. Antagonist potencies were determined as the concentration required to produce 50% reduction in the response as compared to the negative and positive controls.
Work on `C[C@@H]1CCCN1c1nc(CNC(=O)[C@@H]2CCCN2S(=O)(=O)c2ccc(Cl)s2)cc(-c2ccc(C(F)(F)F)cc2)n1` [Example 30, 1-(5-Chloro-thiophene-2-sulfonyl)-pyrrolidine-2(S)-carboxylic acid [2-(2R-methyl-pyrrolidin-1-yl)-6-(4-trifluoromethyl-phenyl)-pyrimidin-4-ylmethyl]-amide] yielded an IC50 of 13 nM. Work on `C[C@H]1CCCN1c1nc(CNC(=O)[C@@H]2CCCN2S(=O)(=O)c2ccc(Cl)s2)cc(-c2ccc(C(F)(F)F)cc2)n1` [Example 31, 1-(5-Chloro-thiophene-2-sulfonyl)-pyrrolidine-2S-carboxylic acid [2-(2S-methyl-pyrrolidin-1-yl)-6-(4-trifluoromethyl-phenyl)-pyrimidin-4-ylmethyl]-amide] yielded an IC50 of 9 nM. Molecule `CN(C)[C@@H]1CCN(c2nc(CNC(=O)[C@@H]3CCCN3S(=O)(=O)c3ccc(Cl)s3)cc(-c3ccc(C(F)(F)F)cc3)n2)C1` [Example 32, 1-(5-Chloro-thiophene-2-sulfonyl)-pyrrolidine-2S-carboxylic acid [2-(3R-dimethylamino-pyrrolidin-1-yl)-6-(4-trifluoromethyl-phenyl)-pyrimidin-4-ylmethyl]-amide] has an IC50 of 1020 nM. `CN(C)[C@H]1CCN(c2nc(CNC(=O)[C@@H]3CCCN3S(=O)(=O)c3ccc(Cl)s3)cc(-c3ccc(C(F)(F)F)cc3)n2)C1` [Example 33, 1-(5-Chloro-thiophene-2-sulfonyl)-pyrrolidine-2S-carboxylic acid [2-(3S-dimethylamino-pyrrolidin-1-yl)-6-(4-trifluoromethyl-phenyl)-pyrimidin-4-ylmethyl]-amide] was tested, and the IC50 was 469 nM. `CC(C)(C)OC(=O)N[C@H]1CCN(c2nc(CNC(=O)[C@@H]3CCCN3S(=O)(=O)c3ccc(Cl)s3)cc(-c3ccc(C(F)(F)F)cc3)n2)C1` [Example 34, {1-[4-({[1-(5-Chloro-thiophene-2-sulfonyl)-pyrrolidine-2S-carbonyl]-amino}-methyl)-6-(4-trifluoromethyl-phenyl)-pyrimidin-2-yl]-pyrrolidin-3S-yl}-carbamic acid tert-butyl ester] was tested, and the IC50 was 32 nM. Work on `CC(C)(C)OC(=O)N[C@@H]1CCN(c2nc(CNC(=O)[C@@H]3CCCN3S(=O)(=O)c3ccc(Cl)s3)cc(-c3ccc(C(F)(F)F)cc3)n2)C1` [Example 35, {1-[4-({[1-(5-Chloro-thiophene-2-sulfonyl)-pyrrolidine-2S-carbonyl]-amino}-methyl)-6-(4-trifluoromethyl-phenyl)-pyrimidin-2-yl]-pyrrolidin-3R-yl}-carbamic acid tert-butyl ester] yielded an IC50 of 83 nM. `C[C@H](Nc1nc(CNC(=O)[C@@H]2CCCN2S(=O)(=O)c2ccc(Cl)s2)cc(-c2ccc(C(F)(F)F)cc2)n1)c1ccccn1` [Example 36, 1-(5-Chloro-thiophene-2-sulfonyl)-pyrrolidine-2S-carboxylic acid [2-(1-pyridin-2-yl-ethylamino)-6-(4-trifluoromethyl-phenyl)-pyrimidin-4S-ylmethyl]-amide] showed an IC50 of 39 nM. With `C[C@@H](Nc1nc(CNC(=O)[C@@H]2CCCN2S(=O)(=O)c2ccc(Cl)s2)cc(-c2ccc(C(F)(F)F)cc2)n1)c1ccccn1` [Example 37, 1-(5-Chloro-thiophene-2-sulfonyl)-pyrrolidine-2S-carboxylic acid [2-(1-pyridin-2-yl-ethylamino)-6-(4-trifluoromethyl-phenyl)-pyrimidin-4R-ylmethyl]-amide] the IC50 was 7 nM. For `CN(C(=O)OC(C)(C)C)C1CCN(c2nc(CNC(=O)[C@@H]3CCCN3S(=O)(=O)c3ccc(Cl)s3)cc(-c3ccc(C(F)(F)F)cc3)n2)C1` (stereo partly drawn) [Example 38, {1-[4-({[1-(5-Chloro-thiophene-2-sulfonyl)-pyrrolidine-2S-carbonyl]-amino}-methyl)-6-(4-trifluoromethyl-phenyl)-pyrimidin-2-yl]-pyrrolidin-3-yl}-methyl-carbamic acid tert-butyl ester], the IC50 was 6 nM. `N[C@H]1CCN(c2nc(CNC(=O)[C@@H]3CCCN3S(=O)(=O)c3ccc(Cl)s3)cc(-c3ccc(C(F)(F)F)cc3)n2)C1` [Example 39, 1-(5-Chloro-thiophene-2-sulfonyl)-pyrrolidine-2S-carboxylic acid [2-(3S-amino-pyrrolidin-1-yl)-6-(4-trifluoromethyl-phenyl)-pyrimidin-4-ylmethyl]-amide] showed an IC50 of 1260 nM. Work on `N[C@@H]1CCN(c2nc(CNC(=O)[C@@H]3CCCN3S(=O)(=O)c3ccc(Cl)s3)cc(-c3ccc(C(F)(F)F)cc3)n2)C1` [Example 40, 1-(5-Chloro-thiophene-2-sulfonyl)-pyrrolidine-2S-carboxylic acid [2-(3R-amino-pyrrolidin-1-yl)-6-(4-trifluoromethyl-phenyl)-pyrimidin-4-ylmethyl]-amide] yielded an IC50 of 1650 nM. `CNC1CCN(c2nc(CNC(=O)[C@@H]3CCCN3S(=O)(=O)c3ccc(Cl)s3)cc(-c3ccc(C(F)(F)F)cc3)n2)C1` (stereo partly drawn) [Example 41, 1-(5-Chloro-thiophene-2-sulfonyl)-pyrrolidine-2S-carboxylic acid [2-(3-methylamino-pyrrolidin-1-yl)-6-(4-trifluoromethyl-phenyl)-pyrimidin-4-ylmethyl]-amide] gave an IC50 of 2920 nM. For `CC(C)COc1nc(CNC(=O)[C@@H]2CCCN2S(=O)(=O)c2ccc(F)cc2)cc(-c2ccc(C(F)(F)F)cc2)n1` [Example 42, 1-(4-Fluoro-benzenesulfonyl)-pyrrolidine-2-carboxylic acid [2-isobutoxy-6-(4-trifluoromethyl-phenyl)-pyrimidin-4-ylmethyl]-amide], the IC50 was 16 nM. With `CC(C)COc1nc(CNC(=O)[C@@H]2CCCN2S(=O)(=O)c2ccc(Cl)s2)cc(-c2ccc(C(F)(F)F)cc2)n1` [Example 43, 1-(5-Chloro-thiophene-2-sulfonyl)-pyrrolidine-2S-carboxylic acid [2-isobutoxy-6-(4-trifluoromethyl-phenyl)-pyrimidin-4-ylmethyl]-amide] the IC50 was 4 nM. For `CC(C)C1CCCN1c1nc(CNC(=O)[C@@H]2CCCN2S(=O)(=O)c2ccc(Cl)s2)cc(-c2ccc(C(F)(F)F)cc2)n1` (stereo partly drawn) [Example 44, 1-(5-Chloro-thiophene-2-sulfonyl)-pyrrolidine-2S-carboxylic acid [2-(2-isopropyl-pyrrolidin-1-yl)-6-(4-trifluoromethyl-phenyl)-pyrimidin-4-ylmethyl]-amide], the IC50 was 12 nM. `CC(O)CNc1nc(CNC(=O)[C@@H]2CCCN2S(=O)(=O)c2ccc(Cl)s2)cc(-c2ccc(C(F)(F)F)cc2)n1` (stereo partly drawn) [Example 45, 1-(5-Chloro-thiophene-2-sulfonyl)-pyrrolidine-2S-carboxylic acid [2-(2-hydroxy-propylamino)-6-(4-trifluoromethyl-phenyl)-pyrimidin-4-ylmethyl]-amide] gave an IC50 of 2040 nM. For `CC(C)(O)CNc1nc(CNC(=O)[C@@H]2CCCN2S(=O)(=O)c2ccc(Cl)s2)cc(-c2ccc(C(F)(F)F)cc2)n1` [Example 46, 1-(5-Chloro-thiophene-2-sulfonyl)-pyrrolidine-2S-carboxylic acid [2-(2-hydroxy-2-methyl-propylamino)-6-(4-trifluoromethyl-phenyl)-pyrimidin-4-ylmethyl]-amide], the IC50 was 747 nM. Molecule `COc1nc(CNC(=O)[C@@H]2CCCN2S(=O)(=O)c2ccc(Cl)s2)cc(-c2ccc(C(F)(F)F)cc2)n1` [Example 47, 1-(5-Chloro-thiophene-2-sulfonyl)-pyrrolidine-2S-carboxylic acid [2-methoxy-6-(4-trifluoromethyl-phenyl)-pyrimidin-4-ylmethyl]-amide] has an IC50 of 14 nM.
